Results: PMC8744835, “Sterically Hindered Quaternary Phosphonium Salts (QPSs): Antimicrobial Activity and Hemolytic and Cytotoxic Properties” (International Journal of Molecular Sciences, 2021)

Experiments:
Format in all cases: cell-based
[1] = system: Candida albicans ATCC 10231; assay: Fungicidal activity, serial dilution technique; settings: average of three ± SD, - means non-active
How it was run: (§1)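 Serial dilution in Mueller–Hinton Broth 2 with an inoculum of 3.0 × 10^5 cfu/mL, 37 °C, read every 24 h for 5 days; three repeats. MIC is the lowest concentration inhibiting visible growth of the test organism.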

[2] = system: Trichophyton mentagrophytes var. gypseum 1773; assay: Fungicidal activity, serial dilution technique; settings: Tm; average of three ± SD; - means non-active
How it was run: as §1

[3] = system: Enterococcus faecalis ATCC 2921; assay: Antimicrobial activity, serial dilution technique in Mueller–Hinton Broth 2; settings: Ef; average of three ± SD; - means non-active
How it was run: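 Antibacterial activity against Enterococcus faecalis ATCC 2921 was assessed by serial dilution in Mueller–Hinton Broth 2 with a bacterial load of 3.0 × 10^5 cfu/mL. Cultures were incubated at 37 °C, with growth recorded every 24 h for 5 days, and the experiment was performed three times.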

[4] = system: Pseudomonas aeruginosa ATCC 9027; assay: as above; settings: Pseudomonas aeruginosa, ATCC9027, Pa, average of three ± SD, - means non-active

## CCCCCCCCCCCC[P+](C(C)(C)C)(C(C)(C)C)C(C)(C)C [Compound 12a, tri-tert-butyl(n-dodecyl)phosphonium]
[1]; Ca
  Minimum Bactericidal and Fungicidal Concentration (MBC, MFC), Ca: 31.3 ± 2.7 µg/mL
[1]; Candida albicans, ATCC10231, Ca, read-out: Minimum Inhibitory Concentration (MIC), Ca
  MIC: 15.6 ± 1.4 µg/mL
[2]
  Minimum Bactericidal and Fungicidal Concentration (MBC, MFC), Tm: 15.6 ± 1.3 µg/mL
  Minimum Inhibitory Concentration (MIC), Tm: 15.6 ± 1.2 µg/mL
[3]
  Minimum Bactericidal and Fungicidal Concentration (MBC, MFC), Ef: 1.9 ± 0.1 µg/mL
  Minimum Inhibitory Concentration (MIC), Ef: 0.9 ± 0.06 µg/mL
[4]; read-out: Minimum Bactericidal and Fungicidal Concentration (MBC, MFC), Pa
  MBC: 125 ± 11 µg/mL
[4]; read-out: Minimum Inhibitory Concentration (MIC), Pa
  MIC: 62.5 ± 5.5 µg/mL
